Legend:
Experiment in all cases: Bactericidal activity, log10 CFU/ml after 0, 30 and 60 minutes
Type in all cases: cell-based
[1] = system: clinical strain of Staphylococcus epidermis; conditions: baseline 5.4
Source text: (§1) Various bacterial cells lines were obtained from the clinical strains collection of the Laboratory of Molecular Epidemiology and Antimicrobial Resistance, Tel Aviv Sourasky Medical Center. The bactericidal activity of the tested antiseptic combinations was thus tested against Klebsiella pneumoniae, a Methicillin Resistant clinical strain of Staphylococcus aureus (MRSA), a clinical strain of Staphylococcus epidermis, a clinical strain of Extended Spectrum β-lactamase producing Escherichia coli, a clinical strain of Multi Drug Resistant Acinetobacter baumannii, and a clinical strain of Multi Drug Resistant Pseudomonas aeruginosa.
(§2) The bacterial growth protocol was essentially as described above only that bacteria cell lines were grown in BHI growth medium (and following the growth of the cells in the medium, the bacterial suspension was adjusted to 10^7 CFU/ml by dilution with sterile medium). In addition, in these experiments, the static incubation of each bacterial suspension with the silver ion+menthol combination was for 0, 30 and 60 minutes.
(§3) The effect of a combination of 0.01% silver ions and 0.05% menthol (solubilized by 0.5% (v/v) TWEEN 20) on the growth and viability of various types of bacteria was evaluated.
(§4) Cells incubated with NaNO3 0.9% (w/v) solution alone, without the addition of any antiseptic agent, served as control.
(§5) Table 2 presents the log10 CFU/ml calculated for different types of bacterial cell suspensions incubated for 0, 30 and 60 minutes with no antiseptic agent (control) or either 0.01% silver ions (0.01% AgNO3) alone, 0.05% menthol alone or a combination of 0.01% silver ions and 0.05% menthol. A baseline level was defined as the observed bacteria growth at time 0 when no antiseptic agent was added to the bacterial suspension.

Klebsiella pneumoniae = conditions: baseline 6.8
Source text: as §1, §2, §3, §4, §5

[2] = system: clinical strain of Multi Drug Resistant Acinetobacter baumannii; conditions: baseline 6.4
Source text: as §1, §2, §3, §4, §5

[3] = system: clinical strain of Extended Spectrum β-lactamase producing Escherichia coli; conditions: baseline 5.9
Source text: as §1, §2, §3, §4, §5

[4] = system: Methicillin Resistant clinical strain of Staphylococcus aureus (MRSA); conditions: baseline 6.1
Source text: as §1, §2, §3, §4, §5

[5] = system: clinical strain of Multi Drug Resistant Pseudomonas aeruginosa; conditions: baseline 6.5
Source text: as §1, §2, §3, §4, §5

[6] = system: Escherichia coli ATCC 47076; conditions: baseline 7.3
Experimental: A frozen stock of E. coli ATCC 47076 was grown overnight (1 ml in 9 ml LB medium) in a shaker incubator (200 rpm at 37° C.) until the OD600nm of the medium reached 1.6-1.8. […] The Bacterial suspension was adjusted to 10^8 CFU/ml by dilution with sterile medium. The Bacterial cells were then washed three times with 0.9% NaNO3. The NaNo3 washing cycles was performed by transferring 5 ml of the bacterial suspensions into 15 ml test tubes and subjecting the suspension to centrifugation at 4000 rpm at 4° C. for 5 minutes, followed by removal of the supernatant and re-suspension of the bacterial cell pellet in 5 ml of 0.9% NaNO3. The bactericidal activity of various concentration combinations of silver ions (from AgNO3) and menthol (solubilized by the addition of 0.5% TWEEN 20) was then assessed by adding 5 ml of the tested combinations to the bacterial cell pellets prepared as described hereinbelow and re-suspending the cell pellets by vortex. A test tube containing only 0.9% NaNO3 served as control. The bacterial suspensions thus obtained were transferred to sterile glass tubes to reduce potential cell adsorption to the walls, and kept covered at 37° C. throughout the testing period. Following 5 minutes of static incubation, 100 μl samples of the treated bacterial suspension were removed, and […] decimal dilutions in NaNO3 0.9% of the suspension were dropped onto LB agar plates. The level of bacterial proliferation was assessed by counting the number of colonies that grew on the plates and calculating the CFU/ml and log10 CFU/ml following 18 hours of incubation at 37° C. Higher log10 CFU/ml calculated for a bacterial suspension, incubated with a specific combination, is indicative of a lower level of bactericidal activity of that combination. The bacterial growth protocol was essentially as described above only that bacteria cell lines were grown in BHI growth medium (and following the growth of the cells in the medium, the bacterial suspension was adjusted to 10^7 CFU/ml by dilution with sterile medium). In addition, in these experiments, the static incubation of each bacterial suspension with the silver ion+menthol combination was for 0, 30 and 60 minutes. […] Cells incubated with NaNO3 0.9% (w/v) solution alone, without the addition of any antiseptic agent, served as control. […] S. Block, Editor. 2000, Lippincott Williams and Wilkins, pp 1305-1328. […] A baseline level was defined as the observed bacteria growth at time 0 when no antiseptic agent was added to the bacterial suspension.

| Compound | log10 CFU/ml of bacteria ([1]; treated for 0 minutes) [log10 CFU/ml] | log10 CFU/ml of bacteria ([1]; treated for 30 minutes) [log10 CFU/ml] | log10 CFU/ml of bacteria ([1]; treated for 60 minutes) [log10 CFU/ml] | log10 CFU/ml of bacteria (Klebsiella pneumoniae; treated for 0 minutes) [log10 CFU/ml] | log10 CFU/ml of bacteria (Klebsiella pneumoniae; treated for 30 minutes) [log10 CFU/ml] | log10 CFU/ml of bacteria (Klebsiella pneumoniae; treated for 60 minutes) [log10 CFU/ml] | log10 CFU/ml of bacteria ([2]; treated for 0 minutes) [log10 CFU/ml] | log10 CFU/ml of bacteria ([2]; treated for 30 minutes) [log10 CFU/ml] | log10 CFU/ml of bacteria ([2]; treated for 60 minutes) [log10 CFU/ml] | log10 CFU/ml of bacteria ([3]; treated for 0 minutes) [log10 CFU/ml] | log10 CFU/ml of bacteria ([3]; treated for 30 minutes) [log10 CFU/ml] | log10 CFU/ml of bacteria ([3]; treated for 60 minutes) [log10 CFU/ml] | log10 CFU/ml of bacteria ([4]; treated for 0 minutes) [log10 CFU/ml] | log10 CFU/ml of bacteria ([4]; treated for 30 minutes) [log10 CFU/ml] | log10 CFU/ml of bacteria ([4]; treated for 60 minutes) [log10 CFU/ml] | log10 CFU/ml of bacteria ([5]; treated for 0 minutes) [log10 CFU/ml] | log10 CFU/ml of bacteria ([5]; treated for 30 minutes) [log10 CFU/ml] | log10 CFU/ml of bacteria ([5]; treated for 60 minutes) [log10 CFU/ml] | log10 CFU/ml of bacteria ([6]; treated for 0 minutes) [log10 CFU/ml] | log10 CFU/ml of bacteria ([6]; treated for 30 minutes) [log10 CFU/ml] | also measured |
| --- | --- | --- | --- | --- | --- | --- | --- | --- | --- | --- | --- | --- | --- | --- | --- | --- | --- | --- | --- | --- | --- |
| CC(C)[C@H]1CC[C@@H](C)C[C@@H]1O [0.05% Menthol, 5-methyl-2-propan-2-yl-cyclohexan-1-ol] | 5.4 | 5.4 | 5.3 | 6.2 | 4.9 | 3.8 | 6.4 | 6.3 | 6.2 | 4.9 | 4.9 | 4.9 | 6.3 | 6.3 | 6.2 | 5.8 | 3.5 | 2.5 | 5.3 | 0 | log10 CFU/ml of bacteria ([6]; treated for 60 minutes): 0 log10 CFU/ml |
| O=[N+]([O-])[O-].[Ag+] [0.01% AgNO3, silver nitrate] | 0 | 0 | 0 | 0 | 0 | 0 | 6.3 | 0 | 0 | 4.8 | 0 | 0 | 5.4 | 0 | 0 | 5.1 | 0 | 0 | 6.4 | 0 | log10 CFU/ml of bacteria ([6]; treated for 60 minutes): 0 log10 CFU/ml |

— patent US8968794B2, “Antiseptic compositions and uses thereof” (Ramot at Tel-Aviv University Ltd., priority 2009, dated 2015)
